Key:
[1] = system: Micrococcus lysodeikticus; test: Bioactivity measurement of reversible lysozyme conjugate (Sigma HEW lysozyme protocol, decrease in absorbance at 450 nm); type: biochemical; settings: 66 mM sodium phosphate buffer pH 6.24
Procedure: Bioactivity of free lysozyme, PEG conjugates of lysozyme and lysozyme recovered from hydrolysis of the conjugates were measured by an assay from the standard protocol of Sigma for hen's egg white (HEW) lysozyme EC.3.2.1.17. A solution containing the unmodified or PEG-modified lysozyme was diluted to 5.5 μg/ml in a 66 mM sodium phosphate buffer (pH 6.24). A suspension of 1.5 mg Micrococcus lysodeikticus in 10 ml of 66 mM phosphate buffer (pH 6.24) was allowed to equilibrate at room temperature until the absorbance at 450 nm was constant. Then 0.1 ml of a lysozyme solution was placed in a 1 cm light path quatz cuvette containing 2.5 ml of the substrate suspension. The decrease in the absorbance at 450 nm was recorded and the activity was determined from the maximum linear rate. Eighty-two percent of lysozyme bioactivity was recovered from the m-PEG-lysozyme conjugate, while the mPEG lysozyme had undetectable bioactivity prior to hydrolysis.

[2] = Hydrolysis of the PEG conjugate of lysozyme monitored by capillary electrophoresis; type: physicochemical; settings: after hydrolysis for 10 days at pH 7 and 37° C.; CE, FIG. 1 Curve B
Procedure: The conjugates prepared as described above were placed at 37° C. and at room temperature and hydrolysis was monitored by capillary electrophoresis (CE).
CE conditions: A solution of 25 mM phosphate buffer, containing 0.1 mg/ml PEO 600K, pH 2.7 was flushed through the capillary for approximately 15-20 min. A voltage of 15 kV was applied until a smooth baseline was obtained. The 25 mM phosphate buffer solution was again flushed through for approximately 5 min and the capillary was then ready for sample injection. The sample, which was adjusted to pH 2 by a phosphate buffer (0.1 M, pH 2), was injected hydrostatically for about […] at a height of approximately 6 inches. A voltage of 15 kV was applied throughout the run with a current between 24 and 30 μA. The protein and PEG-protein conjugate were detected by a UV monitor at 214 nm. The CE instrument consists of a high-voltage power supply (Spellman CZE1000R), a fused silica capillary (75 μm i.d., 360 μm o.d., Polymicro Technologies, Phoenix, Ariz.) and a linear 200 UV/VIS monitor supplied with a deuterium lamp and a capillary flow cell. The total length of the capillary was 64.5 cm, with a 1 cm optical window at 40 cm from the anode. UV data was retrieved and stored using LabVIEW version 4.0.1 software (National Instruments).

Substance: mPEG-lysozyme conjugate: mPEG-lysozyme conjugate prepared with N-mPEG benzamide-m-succimidyl carbonate; mono, di and tri PEGylated lysozyme
- bioactivity prior to hydrolysis ([1]; PEG conjugate before hydrolysis): undetectable
- lysozyme bioactivity recovered from the conjugate ([1]; lysozyme recovered from hydrolysis of the conjugate): Eighty-two
- free lysozyme released [2]: more than 85%
